Literature values in PubChem BioAssay AID1259409 (Chemical Carcinogenesis Research Information System (CCRIS), 2018).

Tested on: rodent chemically induced tumor inhibition, incidence and multiplicity
Assay: CCRIS tumor inhibitor studies
Settings: Dose [Inhibitor]: 0, Promoter: NONE USED

For CCC1(c2ccccc2)C(=O)NC(=O)NC1=O, the “tumour outcome (control, treated, inhibition, significance)” value (Carcinogen: DIETHYLNITROSAMINE, 55-18-5, 80 MG/KG 1/D FOR 3 D PRIOR TO EACH CARCINOGEN DOSE (STUDY DURATION: 6 MO), Route [Inhibitor]: INTRAPERITONEAL, Species: RAT, Strain/Sex: BD6/FEMALE, Target Tissue: Type of Lesion: ESOPHAGUS: TUMOR, Dose [Carcinogen]: 80 MG/KG BW 1/WK FOR 8 WK) is given as 18%, 0%, 100%, not significant, the “tumour outcome (control, treated, inhibition, significance)” value (Carcinogen: DIETHYLNITROSAMINE, 55-18-5, 80 MG/KG 1/D FOR 3 D PRIOR TO EACH CARCINOGEN DOSE (STUDY DURATION: 6 MO), Route [Inhibitor]: INTRAPERITONEAL, Species: RAT, Strain/Sex: BD6/FEMALE, Target Tissue: Type of Lesion: LIVER: TUMOR, Dose [Carcinogen]: 80 MG/KG BW 1/WK FOR 8 WK) is given as 82%, 100%, -18%, not significant and the “tumour outcome (control, treated, inhibition, significance)” value (Carcinogen: N-ETHYL-N-NITROSOUREA, 759-73-9, 0.05% IN DRINKING WATER BEGINNING 4 WK POST CARCINOGEN AND CONTINUING FOR STUDY DURATION (STUDY DURATION: 52 WK), Route [Inhibitor]: ORAL, Species: RAT, Strain/Sex: WF/FEMALE, Target Tissue: Type of Lesion: BRAIN: GLIOMA, Dose [Carcinogen]: 5 MG ONCE AT 24 HR OF AGE) is given as 7/13 (54%), 1/12 (8%), 85%, p<.05. For the same compound, the “tumour outcome (control, treated, inhibition, significance)” value (Carcinogen: N-ETHYL-N-NITROSOUREA, 759-73-9, 0.05% IN DRINKING WATER BEGINNING 4 WK POST CARCINOGEN AND CONTINUING FOR STUDY DURATION (STUDY DURATION: 52 WK), Route [Inhibitor]: ORAL, Species: RAT, Strain/Sex: WF/MALE, Target Tissue: Type of Lesion: BRAIN: GLIOMA, Dose [Carcinogen]: 5 MG ONCE AT 24 HR OF AGE) was 3/13 (23%), 1/10 (10%), 56%, not significant, the “tumour outcome (control, treated, inhibition, significance)” value (Carcinogen: N-ETHYL-N-NITROSOUREA, 759-73-9, 0.05% IN DRINKING WATER BEGINNING 4 WK POST CARCINOGEN AND CONTINUING FOR STUDY DURATION (STUDY DURATION: 52 WK), Route [Inhibitor]: ORAL, Species: RAT, Strain/Sex: WF/MALE, Target Tissue: Type of Lesion: MENINGES: TUMOR, Dose [Carcinogen]: 5 MG ONCE AT 24 HR OF AGE) was 1/13 (8%), 0/10 (0%), 100%, not calculated and the “tumour outcome (control, treated, inhibition, significance)” value (Carcinogen: N-METHYL-N-NITROSOUREA, 684-93-5, 0.05% IN DIET BEGINNING POST CARCINOGEN TREATMENT AND CONTINUING FOR 23 WK (STUDY DURATION: 25 WK), Route [Inhibitor]: ORAL, Species: RAT, Strain/Sex: F344/MALE, Target Tissue: Type of Lesion: FORESTOMACH: PAPILLOMA, Dose [Carcinogen]: 50 MG/KG 4/2 WK) was 8/17 (47%), 12/18 (67%), -43%, not calculated. The “tumour outcome (control, treated, inhibition, significance)” value (Carcinogen: N-METHYL-N-NITROSOUREA, 684-93-5, 0.05% IN DIET BEGINNING POST CARCINOGEN TREATMENT AND CONTINUING FOR 23 WK (STUDY DURATION: 25 WK), Route [Inhibitor]: ORAL, Species: RAT, Strain/Sex: F344/MALE, Target Tissue: Type of Lesion: FORESTOMACH: SQUAMOUS CELL CARCINOMA, Dose [Carcinogen]: 50 MG/KG 4/2 WK) was 2/17 (12%), 9/18 (50%), -316%, not calculated, the “tumour outcome (control, treated, inhibition, significance)” value (Carcinogen: N-METHYL-N-NITROSOUREA, 684-93-5, 0.05% IN DIET BEGINNING POST CARCINOGEN TREATMENT AND CONTINUING FOR 23 WK (STUDY DURATION: 25 WK), Route [Inhibitor]: ORAL, Species: RAT, Strain/Sex: F344/MALE, Target Tissue: Type of Lesion: HEMATOPOIETIC SYSTEM: LYMPHOMA OR LEUKEMIA, Dose [Carcinogen]: 50 MG/KG 4/2 WK) was 3/17 (18%), 5/18 (28%), -56%, not calculated and the “tumour outcome (control, treated, inhibition, significance)” value (Carcinogen: N-METHYL-N-NITROSOUREA, 684-93-5, 0.05% IN DIET BEGINNING POST CARCINOGEN TREATMENT AND CONTINUING FOR 23 WK (STUDY DURATION: 25 WK), Route [Inhibitor]: ORAL, Species: RAT, Strain/Sex: F344/MALE, Target Tissue: Type of Lesion: SMALL INTESTINE: ADENOCARCINOMA, Dose [Carcinogen]: 50 MG/KG 4/2 WK) was 9/17 (53%), 6/18 (33%), 38%, not calculated. For the same compound, the “tumour outcome (control, treated, inhibition, significance)” value (Carcinogen: N-METHYL-N-NITROSOUREA, 684-93-5, 0.05% IN DIET BEGINNING POST CARCINOGEN TREATMENT AND CONTINUING FOR 23 WK (STUDY DURATION: 25 WK), Route [Inhibitor]: ORAL, Species: RAT, Strain/Sex: F344/MALE, Target Tissue: Type of Lesion: SMALL INTESTINE: ADENOMA, Dose [Carcinogen]: 50 MG/KG 4/2 WK) was 10/17 (59%), 15/18 (83%), -41%, not calculated, the “tumour outcome (control, treated, inhibition, significance)” value (Carcinogen: N-METHYL-N-NITROSOUREA, 684-93-5, 0.05% IN DIET BEGINNING POST CARCINOGEN TREATMENT AND CONTINUING FOR 23 WK (STUDY DURATION: 25 WK), Route [Inhibitor]: ORAL, Species: RAT, Strain/Sex: F344/MALE, Target Tissue: Type of Lesion: THYROID: ADENOCARCINOMA, Dose [Carcinogen]: 50 MG/KG 4/2 WK) was 1/17 (6%), 6/18 (33%), -450%, not calculated and the “tumour outcome (control, treated, inhibition, significance)” value (Carcinogen: N-METHYL-N-NITROSOUREA, 684-93-5, 0.05% IN DIET BEGINNING POST CARCINOGEN TREATMENT AND CONTINUING FOR 23 WK (STUDY DURATION: 25 WK), Route [Inhibitor]: ORAL, Species: RAT, Strain/Sex: F344/MALE, Target Tissue: Type of Lesion: THYROID: ADENOMA, Dose [Carcinogen]: 50 MG/KG 4/2 WK) was 3/17 (18%), 16/18 (89%), -394%, not calculated. The “tumour outcome (control, treated, inhibition, significance)” value (Carcinogen: N-METHYL-N-NITROSOUREA, 684-93-5, 0.05% IN DIET BEGINNING POST CARCINOGEN TREATMENT AND CONTINUING FOR 23 WK (STUDY DURATION: 25 WK), Route [Inhibitor]: ORAL, Species: RAT, Strain/Sex: F344/MALE, Target Tissue: Type of Lesion: TONGUE: PAPILLOMA, Dose [Carcinogen]: 50 MG/KG 4/2 WK) was 2/17 (12%), 2/18 (11%), 8%, not calculated, the “tumour outcome (control, treated, inhibition, significance)” value (Carcinogen: N-METHYL-N-NITROSOUREA, 684-93-5, 0.05% IN DIET BEGINNING POST CARCINOGEN TREATMENT AND CONTINUING FOR 23 WK (STUDY DURATION: 25 WK), Route [Inhibitor]: ORAL, Species: RAT, Strain/Sex: F344/MALE, Target Tissue: Type of Lesion: TONGUE: SQUAMOUS CELL CARCINOMA, Dose [Carcinogen]: 50 MG/KG 4/2 WK) was 2/17 (12%), 3/18 (17%), -42%, not calculated and the “tumour outcome (control, treated, inhibition, significance)” value (Carcinogen: N-METHYL-N-NITROSOUREA, 684-93-5, 0.05% IN DIET BEGINNING POST CARCINOGEN TREATMENT AND CONTINUING FOR 23 WK (STUDY DURATION: 25 WK), Route [Inhibitor]: ORAL, Species: RAT, Strain/Sex: F344/MALE, Target Tissue: Type of Lesion: URINARY BLADDER: PAPILLOMA, Dose [Carcinogen]: 50 MG/KG 4/2 WK) was 2/17 (12%), 1/18 (6%), 50%, not calculated. The “tumour outcome (control, treated, inhibition, significance)” value (0.05% IN DIET FOR 13 WK AFTER WEANING (STUDY DURATION: 13 WK), Route [Inhibitor]: ORAL, Species: MOUSE, Strain/Sex: DDK/FEMALE, Target Tissue: Type of Lesion: LIVER: TUMOR, Dose [Carcinogen]: 40 MG/KG ADMINISTERED TO MOTHERS ON DAY 14 OF GESTATION) was 2/15 (13%), 1/15 (7%), 46%, p<0.05, the “tumour outcome (control, treated, inhibition, significance)” value (0.05% IN DIET FOR 13 WK AFTER WEANING (STUDY DURATION: 13 WK), Route [Inhibitor]: ORAL, Species: MOUSE, Strain/Sex: DDK/MALE, Target Tissue: Type of Lesion: LIVER: TUMOR, Dose [Carcinogen]: 40 MG/KG ADMINISTERED INTRAPERITONEALLY TO MOTHERS ON DAY 14 OF GESTATION) was 2/15 (13%), 1/7 (6%), 54%, p<0.05 and the “tumour outcome (control, treated, inhibition, significance)” value (0.05% IN DIET FOR 25 WK AFTER WEANING (STUDY DURATION: 25 WK), Route [Inhibitor]: ORAL, Species: MOUSE, Strain/Sex: DDK/MALE, Target Tissue: Type of Lesion: LIVER: TUMOR, Dose [Carcinogen]: 40 MG/KG ADMINISTERED TO MOTHERS ON DAY 14 OF GESTATION) was 8/15 (53%), 0/18 (0%), 100%, not calculated.
